Measurements taken from PMC12323621, “Exploring the antimicrobial activity of pantothenamides against uropathogenic Escherichia coli” (Microbiology Spectrum, 2025).

Key:
UPEC strain CFT073 [1] = assay: Checkerboard analysis of BAP with pantothenamide in pooled human urine; format: cell-based, Escherichia coli; conditions: combination with BAP, UPEC in urine batch B
Protocol: As previously described ([7]), an inoculum of 10^5 CFU/mL CFT073 was prepared in pooled human urine Batch B (described above). Cells (100 µL) were added 1:1 to a 96-well plate containing varied combinations of BAP and 1 or N5-Pan analog at 2× the final concentration (100 µL). The OD600 was recorded at 37°C for 16 h with intermittent shaking. Fractional growth was calculated relative to the no drug control at 6 h. Experiments were performed in biological triplicate.
Fractional inhibitory concentration indices (FICI) were determined as previously described ([7], [8]) and calculated using equation 2:
FICI=FICA+FICB=([A]/MICA)+([B]/MICB)
MICA and MICB are the lowest [A] or [B], respectively, required to suppress 90% of the bacterial growth. FICA was calculated as [A] in the presence of B for a combination resulting in <10% growth, divided by MICA. FICB was calculated as [B] in the presence of A for a combination resulting in <10% growth, divided by MICB. Isobolograms were prepared from the checkerboard analysis by plotting FIC for BAP and 1 or 6 over the range of BAP concentrations tested in combination with 1 or 6. Points falling below the line of additivity indicate potentiation of activity. See Fig. S6 for the visual representation of the method of assembling isobolograms.

UPEC strain CFT073 [2] = assay: Antimicrobial susceptibility assay, UPEC grown in MOPS-glycerol; format: cell-based, Escherichia coli; conditions: UPEC CFT073 grown in MOPS-glycerol, 24 h, ± standard error; for MIC: Escherichia coli
Source text: Unless otherwise noted, all reagents were obtained from commercial sources. BAP, 1, and N5-Pan analogs were synthesized according to previously reported procedures ([31], [53]). Urine was self-collected from adult males and females (not menstruating) between 24 and 57 years old (recruitment was open to donors 18–65 years old), who had not used anti-infectives or cranberry products for at least 7 days prior to collection. The collection protocol was approved by the Johns Hopkins University Institutional Review Boards under IRB study NA_00085130. Informed, written consent was obtained from all participants prior to collection. Urine was collected from at least 7 participants over 14 days, stored at 4°C upon collection, and then pooled, filter-sterilized, and frozen at −20°C. Urine Batch A included five male and three female donors with an average age of 33 years (range: 24–57). Urine Batch B included four male and five female donors with an average age of 26 years (range: 24–43). Samples from two donors (donations made at least 30 days apart) were included in both Batch A and Batch B. Urine Batch C included four male and three female donors with an average age of 27 years (range: 24–36). Urine Batch D included four male and three female donors with an average age of 27 years (range: 25–35). Solid urine agar plates were prepared by supplementing cooled 1.5% (wt/vol) agar with filter-sterilized urine in a 4:1 ratio. Liquid MOPS-glycerol was prepared by adding 10 × 3-(N-morpholino)propanesulfonic acid (MOPS) Buffer (Teknova) to water to a final 1× concentration, 1.32 mM K2HPO4, and 0.4% (vol/vol) glycerol and then filter-sterilizing. Unless otherwise noted, all media were supplemented with freshly prepared 20 µM FeSO4. OD600 analyses were performed on Mettler-Toledo UV5Bio UV/Visible spectrophotometer (Columbus, Ohio, USA). For antimicrobial studies, uropathogenic E. coli strain CFT073 (ATCC: BAA-2503) was provided by Kevin Schwartz from the lab of Rodney Welch. All manipulation of UPEC was conducted in a certified biosafety level 2 (BSL-2) laboratory while using BSL-2-associated safety procedures. Antimicrobial data were collected on a Biotek Epoch 2 microplate reader or a Biotek Synergy Neo 2 microplate reader. For metabolic stability studies, losartan potassium (PHR1602), used as an internal standard, was bought from Millipore Sigma (Burlington, MA). Methanol (A456-4) and acetonitrile (A955-4) were purchased from Fisher Chemical (Pittsburgh, PA). Water (9831-03) was purchased from JT Baker (Philipsburg, NJ). Dimethyl sulfoxide (DMSO)(154938-500mL) was purchased from Sigma Aldrich (St. Louis, MO). Mouse plasma (WT) was purchased from Innovative Research (Novi, MI). Mouse liver microsomes (M1000) were purchased from XenoTech LLC (Kansas City, KS).
All antimicrobial susceptibility assays were conducted as previously described using an aseptic technique with some modification ([7]). Briefly, 3–5 isolated colonies of CFT073 on LB agar or pooled urine agar were inoculated into 3 mL of liquid MOPS-glycerol medium or pooled urine, respectively, and grown overnight with shaking at 37°C. Saturated cultures were diluted 1:50 in fresh medium and grown to an OD600 of 0.4. These exponential phase cultures were then diluted 1:1,000 into fresh medium to yield the experimental inoculum, which was mixed 1:1 with medium containing 1 or N5-Pan analog at twice the desired final concentration in 96-well plates. The final concentration of bacteria in each well was approximately 10^5 CFU/mL in a final volume of 200 µL. The concentration ranges of compounds evaluated in MOPS-glycerol were: 1 (0–312.5 μM), 2 (0–100 μM), 3 (0–500 μM), 4–5 (0–2,000 μM), 6–7 (0–100 μM), and 8–12 (0-2,000 μM). Analogs 1, 6, and 7 were evaluated over a range of 0–4,000 μM in four batches of pooled human urine. The OD600 was monitored for 24 h (MOPS-glycerol) or 16 h (pooled urine) at 37°C with periodic shaking. […]

Row | Structure (SMILES) | effect of BAP on activity (isobologram analysis) (UPEC strain CFT073 [1]) | MIC (UPEC strain CFT073 [2]) [µM] | MIC MOPS-glycerol (UPEC strain CFT073 [2]) [µM] | Fractional inhibitory concentration index (FICI) (UPEC strain CFT073 [1]; range across experiments)
1 | CCCCCNC(=O)CCNC(=O)[C@H](O)C(C)(C)CO [compound 1, N-pentylpantothenamide, reference compound] | potentiates the activity | 2.44 | 2.44 ± 0.00 | –
2 | CCCCCNC(=O)CNC(=O)[C@H](O)C(C)(C)CO [compound 6, N5-α-pantothenamide] | potentiates the activity | 6.25 | 6.25 ± 0.00 | 0.5–1.25
